Measurements from US9993536B2, “Peptides and combination of peptides and scaffolds for use in immunotherapy against renal cell carcinoma (RCC) and other cancers” (immatics biotechnologies GmbH, priority 2015, dated 2018).

Legend:
CD8+ T cells = assay: In vitro T-cell priming assay with aAPCs loaded with peptide/MHC complexes and anti-CD28 (immunogenicity, multimer staining); format: cell-based, human; conditions: in vitro immunogenicity, HLA class I peptides; percentage of positive wells
Text: In order to obtain information regarding the immunogenicity of the TUMAPs of the present invention, the inventors performed investigations using an in vitro T-cell priming assay based on repeated stimulations of CD8+ T cells with artificial antigen presenting cells (aAPCs) loaded with peptide/MHC complexes and anti-CD28 antibody.
In order to perform in vitro stimulations by artificial antigen presenting cells loaded with peptide-MHC complex (pMHC) and anti-CD28 antibody, the inventors first isolated CD8+ T cells from fresh HLA-A*02 leukapheresis products via positive selection using CD8 microbeads (Miltenyi Biotec, Bergisch-Gladbach, Germany) of healthy donors obtained from the University clinics Mannheim, Germany, after informed consent.
PBMCs and isolated CD8+ lymphocytes were incubated in T-cell medium (TCM) until use consisting of RPMI-Glutamax (Invitrogen, Karlsruhe, Germany) supplemented with 10% heat inactivated human AB serum (PAN-Biotech, Aidenbach, Germany), 100 U/ml Penicillin/100 μg/ml Streptomycin (Cambrex, Cologne, Germany), 1 mM sodium pyruvate (CC Pro, Oberdorla, Germany), 20 μg/ml Gentamycin (Cambrex). 2.5 ng/ml IL-7 (PromoCell, Heidelberg, Germany) and 10 U/ml IL-2 (Novartis Pharma, Nürnberg, Germany) were also added to the TCM at this step.
Generation of pMHC/anti-CD28 coated beads, T-cell stimulations and readout was performed in a highly defined in vitro system using four different pMHC molecules per stimulation condition and 8 different pMHC molecules per readout condition.
The purified co-stimulatory mouse IgG2a anti human CD28 Ab 9.3 (Jung et al., 1987) was chemically biotinylated using Sulfo-N-hydroxysuccinimidobiotin as recommended by the manufacturer (Perbio, Bonn, Germany). Beads used were 5.6 μm diameter streptavidin coated polystyrene particles (Bangs Laboratories, Illinois, USA).
pMHC used for positive and negative control stimulations were A*0201/MLA-001 (peptide […] (SEQ ID NO. 152) from modified Melan-A/MART-1) and A*0201/DDX5-001 ([…] from DDX5 (SEQ ID NO. 153)), respectively.
800.000 beads/200 μl were coated in 96-well plates in the presence of 4×12.5 ng different biotin-pMHC, washed and 600 ng biotin anti-CD28 were added subsequently in a volume of 200 μl. Stimulations were initiated in 96-well plates by co-incubating […] CD8+ T cells with 2×10^5 washed coated beads in 200 μl TCM supplemented with 5 ng/ml IL-12 (PromoCell) for 3 days at 37° C. Half of the medium was then exchanged by fresh TCM supplemented with 80 U/ml IL-2 and incubating was continued for 4 days at 37° C. This stimulation cycle was performed for a total of three times. For the pMHC multimer readout using 8 different pMHC molecules per condition, a two-dimensional combinatorial coding approach was used as previously described (Andersen et al., 2012) with minor modifications encompassing coupling to 5 different fluorochromes. Finally, multimeric analyses were performed by staining the cells with Live/dead near IR dye (Invitrogen, Karlsruhe, Germany), CD8-FITC antibody clone SK1 (BD, Heidelberg, Germany) and fluorescent pMHC multimers. For analysis, a BD LSRII SORP cytometer equipped with appropriate lasers and filters was used. Peptide specific cells were calculated as percentage of total CD8+ cells. Evaluation of multimeric analysis was done using the FlowJo software (Tree Star, Oregon, USA). In vitro priming of specific multimer+ CD8+ lymphocytes was detected by comparing to negative control stimulations.

HLA-A*02:01 = HLA-A*02:01 (Homo sapiens, UniProt P04439, D140Y/D185E/D98H/E176V/E277Q/G131W/G231S/I119V/I121R/I166T/I218V/L300P/L318F/N151K/N90K/P208A/P217A/Q86G/Q94H/R138H/R169H/T345S); assay: MHC binding assay (UV-ligand exchange, beta2m ELISA); conditions: peptide exchange yield, HLA-A*02:01, UV-ligand exchange
Text: Candidate peptides for T cell based therapies according to the present invention were further tested for their MHC binding capacity (affinity). The individual peptide-MHC complexes were produced by UV-ligand exchange, where a UV-sensitive peptide is cleaved upon UV-irradiation, and exchanged with the peptide of interest as analyzed. Only peptide candidates that can effectively bind and stabilize the peptide-receptive MHC molecules prevent dissociation of the MHC complexes. To determine the yield of the exchange reaction, an ELISA was performed based on the detection of the light chain (β2m) of stabilized MHC complexes. The assay was performed as generally described in Rodenko et al. (Rodenko et al., 2006).
96 well MAXISorp plates (NUNC) were coated over night with 2 ug/ml streptavidin in PBS at room temperature, washed 4× and blocked for 1 h at 37° C. in 2% BSA containing blocking buffer. Refolded HLA-A*02:01/MLA-001 monomers served as standards, covering the range of 15-500 ng/ml. Peptide-MHC monomers of the UV-exchange reaction were diluted 100 fold in blocking buffer. Samples were incubated for 1 h at 37° C., washed four times, incubated with 2 ug/ml HRP conjugated anti-β2m for 1 h at 37° C., washed again and detected with TMB solution that is stopped with […]. Absorption was measured at 450 nm. Candidate peptides that show a high exchange yield (preferably higher than 50%, most preferred higher than 75%) are generally preferred for a generation and production of antibodies or fragments thereof, and/or T cell receptors or fragments thereof, as they show sufficient avidity to the MHC molecules and prevent dissociation of the MHC complexes.

Peptide exchange (MHC class I binding score) (HLA-A*02:01): ++ (≥20% = ++)
Substance: 98 (KIPPVSPSI; listed as Homo sapiens) [compound 98]
Wells positive [%] (CD8+ T cells): ++++ (>=70% = ++++)
